pIC50: −log10 of the molar value.
Tests used:
[1] = target: HDAC6 human recombinant (Homo sapiens (Human), UniProt Q9UBN7); assay: HDAC enzyme activity inhibition (in vitro), HDAC6 assay; format: biochemical; settings: samples at 0.1, 1, 10, 100 and 1000 nM; 37° C. 60 minutes; fluorescence Ex 390, Em 460
[2] = target: HDAC1 (Homo sapiens (Human), UniProt Q13547); assay: HDAC enzyme activity inhibition (in vitro), HDAC1 Fluorimetric Drug Discovery Assay Kit; format: biochemical; settings: samples at 100, 1000 and 10000 nM; 37° C. 60 minutes; fluorescence Ex 390, Em 460
Sequence of HDAC1 (Q13547 whole entry): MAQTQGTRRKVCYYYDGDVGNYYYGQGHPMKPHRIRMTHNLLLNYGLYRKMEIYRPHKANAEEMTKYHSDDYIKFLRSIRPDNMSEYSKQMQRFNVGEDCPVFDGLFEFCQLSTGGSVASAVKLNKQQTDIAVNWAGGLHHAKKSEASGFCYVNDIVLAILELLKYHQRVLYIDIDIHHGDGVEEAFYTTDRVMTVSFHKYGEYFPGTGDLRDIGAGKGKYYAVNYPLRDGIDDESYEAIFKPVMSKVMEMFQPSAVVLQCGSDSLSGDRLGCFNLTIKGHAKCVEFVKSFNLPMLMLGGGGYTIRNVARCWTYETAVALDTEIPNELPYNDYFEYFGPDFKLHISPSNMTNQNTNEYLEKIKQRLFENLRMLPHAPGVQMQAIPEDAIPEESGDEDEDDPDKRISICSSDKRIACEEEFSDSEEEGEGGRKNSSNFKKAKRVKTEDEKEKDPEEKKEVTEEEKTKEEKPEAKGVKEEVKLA

Sequence of HDAC6 human recombinant (Q9UBN7 whole entry): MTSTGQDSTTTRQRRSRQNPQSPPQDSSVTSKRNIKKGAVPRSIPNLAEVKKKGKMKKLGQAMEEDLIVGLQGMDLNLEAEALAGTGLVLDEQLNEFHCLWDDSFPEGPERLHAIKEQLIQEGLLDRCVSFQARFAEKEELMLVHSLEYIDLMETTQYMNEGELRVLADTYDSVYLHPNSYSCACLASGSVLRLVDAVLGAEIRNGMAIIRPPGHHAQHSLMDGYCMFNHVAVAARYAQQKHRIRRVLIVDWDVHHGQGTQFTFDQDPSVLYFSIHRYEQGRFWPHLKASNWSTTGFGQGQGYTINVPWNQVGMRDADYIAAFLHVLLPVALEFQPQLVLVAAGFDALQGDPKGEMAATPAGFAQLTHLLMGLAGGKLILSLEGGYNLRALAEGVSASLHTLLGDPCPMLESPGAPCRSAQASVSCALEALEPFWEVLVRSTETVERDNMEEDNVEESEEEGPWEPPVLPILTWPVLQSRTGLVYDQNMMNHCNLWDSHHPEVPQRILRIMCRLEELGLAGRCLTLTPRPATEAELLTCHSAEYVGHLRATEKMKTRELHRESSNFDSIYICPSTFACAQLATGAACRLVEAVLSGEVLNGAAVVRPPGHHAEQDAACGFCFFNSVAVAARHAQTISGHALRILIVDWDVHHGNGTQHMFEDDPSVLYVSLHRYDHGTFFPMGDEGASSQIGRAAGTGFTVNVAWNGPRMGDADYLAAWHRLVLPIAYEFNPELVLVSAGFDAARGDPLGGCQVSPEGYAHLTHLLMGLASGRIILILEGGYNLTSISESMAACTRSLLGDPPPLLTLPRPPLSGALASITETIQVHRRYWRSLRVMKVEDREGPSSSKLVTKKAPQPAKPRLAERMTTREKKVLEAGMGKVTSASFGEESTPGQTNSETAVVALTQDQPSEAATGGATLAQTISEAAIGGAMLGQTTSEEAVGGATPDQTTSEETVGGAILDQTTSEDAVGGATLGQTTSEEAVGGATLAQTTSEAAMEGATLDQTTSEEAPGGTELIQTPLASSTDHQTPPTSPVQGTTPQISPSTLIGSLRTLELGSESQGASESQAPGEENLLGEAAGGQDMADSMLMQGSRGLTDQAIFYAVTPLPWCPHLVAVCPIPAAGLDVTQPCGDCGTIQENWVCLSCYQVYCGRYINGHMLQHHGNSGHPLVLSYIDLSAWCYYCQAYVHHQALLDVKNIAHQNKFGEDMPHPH

Structure (SMILES): CN1CCN(c2ccc3c(c2)C(C)(C)C(=O)N(Cc2ccc(-c4nnc(C(F)F)o4)cn2)C3=O)CC12CC2 [Compound 80, 2-((5-(5-(difluoromethyl)-1,3,4-oxadiazole-2-yl)pyridine-2-yl)methyl)-4,4-dimethyl-6-(4-methyl-4,7-diazaspiro[2.5]octane-7-yl)isoquinoline-1,3(2H,4H)-dione]
- pIC50 [1]: 7.77
- pIC50 [2]: < 5.00

Structure (SMILES): CN(C)CCn1c(=O)n(Cc2ccc(-c3nnc(C(F)F)o3)cn2)c(=O)c2ccccc21 [Compound 22, 3-((5-(5-(difluoromethyl)-1,3,4-oxadiazole-2-yl)pyridine-2-yl)methyl)-1-(2-(dimethylamino)ethyl)quinazoline-2,4(1H,3H)-dione]
- pIC50 [1]: 6.68
- pIC50 [2]: < 5.00

Structure (SMILES): COCCN1CCN(c2ccc3c(c2)C(C)(C)C(=O)N(Cc2ccc(-c4nnc(C(F)F)o4)cn2)C3=O)CC1 [Compound 35, 2-((5-(5-(difluoromethyl)-1,3,4-oxadiazole-2-yl)pyridine-2-yl)methyl)-6-(4-(2-methoxyethyl)piperazine-1-yl)-4,4-dimethylisoquinoline-1,3(2H,4H)-dione]
- pIC50 [1]: 7.59
- pIC50 [2]: < 5.00

Structure (SMILES): CC1(C)C(=O)N(Cc2ccc(-c3nnc(C(F)F)o3)cn2)C(=O)c2ccc(N3CCN(C4CC4)CC3)cc21 [Compound 47, 6-(4-cyclopropylpiperazine-1-yl)-2-((5-(5-(difluoromethyl)-1,3,4-oxadiazole-2-yl)pyridine-2-yl)methyl)-4,4-dimethylisoquinoline-1,3(2H,4H)-dione]
- pIC50 [1]: 7.31
- pIC50 [2]: < 5.00

Structure (SMILES): O=C1c2ccccc2C2(CCC2)C(=O)N1Cc1ccc(-c2nnc(C(F)F)o2)cc1 [Compound 5, 2′-(4-(5-(difluoromethyl)-1,3,4-oxadiazole-2-yl)benzyl)-1′H-spiro[cyclobutane-1,4′-isoquinoline]-1′,3′(2′H)-dione]
- pIC50 [1]: 6.29
- pIC50 [2]: < 5.00

Structure (SMILES): CCCN1CCC(c2ccc3c(c2)C(=O)N(Cc2ccc(-c4nnc(C(F)F)o4)cn2)C(=O)C3(C)C)CC1 [Compound 143, 2-((5-(5-(difluoromethyl)-1,3,4-oxadiazole-2-yl)pyridine-2-yl)methyl)-4,4-dimethyl-7-(1-propylpiperidine-4-yl) isoquinoline-1,3 (2H,4H)-dione]
- pIC50 [1]: 7.68
- pIC50 [2]: < 5.00

Structure (SMILES): Cn1c(=O)n(Cc2ccc(-c3nnc(C(F)F)o3)cn2)c(=O)c2cc(-c3ccoc3)ccc21 [Compound 88, 3-((5-(5-(difluoromethyl)-1,3,4-oxadiazole-2-yl)pyridine-2-yl)methyl)-6-(furan-3-yl)-1-methylquinazoline-2,4(1H,3H)-dione]
- pIC50 [1]: 7.68
- pIC50 [2]: < 5.00

Structure (SMILES): O=C1Cc2ccccc2C(=O)N1Cc1ccc(-c2nnc(C(F)F)o2)cn1 [Compound 65, 2-((5-(5-(difluoromethyl)-1,3,4-oxadiazole-2-yl)pyridine-2-yl)methyl)isoquinoline-1,3(2H,4H)-dione]
- pIC50 [1]: 6.88
- pIC50 [2]: < 5.00

Structure (SMILES): CC(C)CCN1CCN(c2ccc3c(c2)C(=O)N(Cc2ccc(-c4nnc(C(F)F)o4)cn2)C(=O)C3(C)C)CC1 [Compound 132, 2-((5-(5-(difluoromethyl)-1,3,4-oxadiazole-2-yl)pyridine-2-yl)methyl)-7-(4-isopentylpiperazine-1-yl)-4,4-dimethylisoquinoline-1,3(2H,4H)-dione]
- pIC50 [1]: 7.16
- pIC50 [2]: < 5.00

Structure (SMILES): CC1(C)C(=O)N(Cc2ccc(-c3nnc(C(F)F)o3)cn2)C(=O)c2ccc(Br)cc21 [Compound 23, 6-bromo-2-((5-(5-(difluoromethyl)-1,3,4-oxadiazole-2-yl)pyridine-2-yl)methyl)-4,4-dimethylisoquinoline-1,3(2H,4H)-dione]
- pIC50 [1]: 7.19
- pIC50 [2]: < 5.00

Structure (SMILES): Cn1c(=O)n(Cc2ccc(-c3nnc(C(F)F)o3)cn2)c(=O)c2cc(-c3cccnc3)ccc21 [Compound 91, 3-((5-(5-(difluoromethyl)-1,3,4-oxadiazole-2-yl)pyridine-2-yl)methyl)-1-methyl-6-(pyridine-3-yl)quinazoline-2,4(1H,3H)-dione]
- pIC50 [1]: 7.48
- pIC50 [2]: < 5.00
